In PMC10018608 (Signal Transduction and Targeted Therapy, 2023):
Like-named read-outs stand apart in the source and are kept apart here.

Columns and labels:
[1] = test system: SARS-CoV-2 (B.1.1.7); experiment: Plaque reduction assay in VeroE6-TMPRSS2; type: cell-based; settings: Severe acute respiratory syndrome coronavirus 2
[2] = biological target: hERG channel (Homo sapiens, UniProt Q12809); experiment: cell-based
[3] = in vitro; type: in vitro ADME, human; settings: human plasma, equilibrium dialysis; read-out: plasma unbound fraction
[4] = test system: human plasma protein; experiment: in vitro; type: in vitro ADME; settings: human plasma, 1 μM, equilibrium dialysis 5 h
[5] = for Corpora lutea / Implantation sites / Live embryos / Resorptions: cesarean section observation; for appearance malformation rate (%): fetal appearance
[6] = test system: SARS-CoV-2 Omicron BA.2 sublineage; type: in vivo, K18-hACE2 transgenic mice
[7] = SD rats
[8] = in vitro; type: cell-based; settings: 72 h
Procedure: Cells were seeded and grown in 96 well plates overnight. Then various concentrations of compounds in fresh medium were added and incubated for 72 h. Using MTT (Sigma) assay to determine the cell viability.

[9] = in vivo; settings: male, Sprague-Dawley, rat
[10] = biological target: T1, CYP2D6 (Homo sapiens, UniProt P10635); experiment: biochemical; type: in vitro ADME; settings: CYP2D6 (Dextromethorphan), HLM
T1 construct: Add 400 μL 0.2 mg/mL HLM; from tissue; host or cells: human liver microsomes (HLM)
T1 sequence (P10635 whole entry): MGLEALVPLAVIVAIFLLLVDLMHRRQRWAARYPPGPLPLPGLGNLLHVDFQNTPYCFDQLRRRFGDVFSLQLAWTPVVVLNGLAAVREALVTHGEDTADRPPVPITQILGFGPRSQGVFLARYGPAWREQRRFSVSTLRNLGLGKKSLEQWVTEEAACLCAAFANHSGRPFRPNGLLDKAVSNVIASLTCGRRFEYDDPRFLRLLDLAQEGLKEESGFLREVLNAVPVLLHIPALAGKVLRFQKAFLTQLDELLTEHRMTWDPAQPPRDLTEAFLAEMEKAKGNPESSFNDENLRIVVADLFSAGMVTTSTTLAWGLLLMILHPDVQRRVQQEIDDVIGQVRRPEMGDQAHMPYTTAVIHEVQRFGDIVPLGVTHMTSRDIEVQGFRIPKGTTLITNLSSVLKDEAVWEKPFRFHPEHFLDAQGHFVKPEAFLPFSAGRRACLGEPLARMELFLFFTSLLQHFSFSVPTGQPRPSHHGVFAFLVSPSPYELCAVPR
Procedure: (§1) Preheat 0.1 M pH 7.4 K/Mg-buffer at 37 °C. The reference inhibitors for this assay are α-Naphthoflavone (1A2), Ticlopidine (2B6), Montelukast (2C8), Sulfaphenazole (2C9), Omeprazole (2C19), Quinidine (2D6), Ketoconazole (3A4). Test compound and reference inhibitors were dissolved in ACN. NADPH cofactor was dissolved in K/Mg-buffer. Each CYP450 isoform was prepared 2 mL substrate (1A2: Phenacetin, 2B6: Amfebutamone HCl, 2C8: Paclitaxel, 2C9: Diclofenac, 2C19: S-Mephenytoin, 2D6: Dextromethorphan, 3A4: Midazolam and Testosterone). Add 400 μL 0.2 mg/mL HLM and 2 μL of test compound set (serially diluted) to the assay wells. And then add 30 μL HLM-compound mixture and 15 μL substrate solution in the 96-well assay plate on ice. Then incubate the 96-well assay plate at 37 °C for 5 min. Add 15 µL of pre-warmed (37 °C) 8 mM NADPH solution to initiate the enzyme reaction. Incubate the assay plate at 37 °C for 5–45 min and quench the reaction. Then collect samples for LC/MS analysis.

[11] = biological target: T2, CYP2C9 (Homo sapiens, UniProt P11712); experiment: biochemical; type: in vitro ADME; settings: CYP2C9 (Diclofenac), HLM
T2 construct: Add 400 μL 0.2 mg/mL HLM; from tissue; host or cells: human liver microsomes (HLM)
T2 sequence (P11712 whole entry): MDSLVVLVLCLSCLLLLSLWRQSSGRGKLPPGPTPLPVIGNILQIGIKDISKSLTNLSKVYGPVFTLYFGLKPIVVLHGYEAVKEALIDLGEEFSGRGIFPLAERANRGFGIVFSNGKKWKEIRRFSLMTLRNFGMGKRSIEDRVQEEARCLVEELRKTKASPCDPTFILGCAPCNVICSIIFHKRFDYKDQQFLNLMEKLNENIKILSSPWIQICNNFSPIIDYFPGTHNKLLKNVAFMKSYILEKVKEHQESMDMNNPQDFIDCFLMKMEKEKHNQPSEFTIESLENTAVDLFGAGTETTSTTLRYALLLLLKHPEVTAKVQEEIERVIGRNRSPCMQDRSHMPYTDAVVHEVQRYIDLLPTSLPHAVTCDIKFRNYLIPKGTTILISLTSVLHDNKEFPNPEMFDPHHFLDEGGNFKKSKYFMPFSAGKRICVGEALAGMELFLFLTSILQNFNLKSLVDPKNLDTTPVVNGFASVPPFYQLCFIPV
Procedure: as §1

[12] = biological target: T3, CYP2B6 (Homo sapiens, UniProt P20813); experiment: biochemical; type: in vitro ADME; settings: CYP2B6 (Bupropion), HLM
T3 construct: Add 400 μL 0.2 mg/mL HLM; from tissue; host or cells: human liver microsomes (HLM)
T3 sequence (P20813 whole entry): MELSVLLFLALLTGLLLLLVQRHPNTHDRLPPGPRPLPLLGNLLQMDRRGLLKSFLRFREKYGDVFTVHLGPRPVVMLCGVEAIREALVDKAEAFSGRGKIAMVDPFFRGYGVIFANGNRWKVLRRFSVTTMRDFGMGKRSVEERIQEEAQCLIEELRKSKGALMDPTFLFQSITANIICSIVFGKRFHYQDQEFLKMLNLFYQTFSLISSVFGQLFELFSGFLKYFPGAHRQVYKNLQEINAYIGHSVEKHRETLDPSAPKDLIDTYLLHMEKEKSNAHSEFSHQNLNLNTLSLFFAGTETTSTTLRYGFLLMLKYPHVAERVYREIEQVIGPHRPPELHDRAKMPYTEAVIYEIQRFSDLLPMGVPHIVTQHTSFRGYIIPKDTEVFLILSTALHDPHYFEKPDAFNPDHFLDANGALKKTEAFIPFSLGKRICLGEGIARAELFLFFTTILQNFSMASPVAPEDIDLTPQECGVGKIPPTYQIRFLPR
Procedure: as §1

[13] = biological target: T4, CYP2C8 (Homo sapiens, UniProt P10632); experiment: biochemical; type: in vitro ADME; settings: CYP2C8 (Paclitaxel), HLM
T4 construct: Add 400 μL 0.2 mg/mL HLM; from tissue; host or cells: human liver microsomes (HLM)
T4 sequence (P10632 whole entry): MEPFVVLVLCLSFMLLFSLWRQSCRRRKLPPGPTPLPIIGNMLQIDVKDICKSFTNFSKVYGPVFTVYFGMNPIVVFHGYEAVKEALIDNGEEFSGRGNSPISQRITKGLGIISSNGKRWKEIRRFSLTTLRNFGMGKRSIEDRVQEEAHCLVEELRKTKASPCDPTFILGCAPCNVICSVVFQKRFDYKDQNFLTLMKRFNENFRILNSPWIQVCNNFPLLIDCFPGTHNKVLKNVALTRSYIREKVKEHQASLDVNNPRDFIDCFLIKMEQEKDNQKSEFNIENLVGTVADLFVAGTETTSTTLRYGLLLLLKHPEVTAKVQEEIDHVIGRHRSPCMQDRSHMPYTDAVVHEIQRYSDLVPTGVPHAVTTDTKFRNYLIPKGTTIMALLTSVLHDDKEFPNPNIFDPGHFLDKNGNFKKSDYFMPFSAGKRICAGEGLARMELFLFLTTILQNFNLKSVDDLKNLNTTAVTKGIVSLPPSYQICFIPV
Procedure: as §1

[14] = biological target: T5, CYP2C19 (Homo sapiens, UniProt P33261); experiment: biochemical; type: in vitro ADME; settings: CYP2C19 (S-Mephenytoin), HLM
T5 construct: Add 400 μL 0.2 mg/mL HLM; from tissue; host or cells: human liver microsomes (HLM)
T5 sequence (P33261 whole entry): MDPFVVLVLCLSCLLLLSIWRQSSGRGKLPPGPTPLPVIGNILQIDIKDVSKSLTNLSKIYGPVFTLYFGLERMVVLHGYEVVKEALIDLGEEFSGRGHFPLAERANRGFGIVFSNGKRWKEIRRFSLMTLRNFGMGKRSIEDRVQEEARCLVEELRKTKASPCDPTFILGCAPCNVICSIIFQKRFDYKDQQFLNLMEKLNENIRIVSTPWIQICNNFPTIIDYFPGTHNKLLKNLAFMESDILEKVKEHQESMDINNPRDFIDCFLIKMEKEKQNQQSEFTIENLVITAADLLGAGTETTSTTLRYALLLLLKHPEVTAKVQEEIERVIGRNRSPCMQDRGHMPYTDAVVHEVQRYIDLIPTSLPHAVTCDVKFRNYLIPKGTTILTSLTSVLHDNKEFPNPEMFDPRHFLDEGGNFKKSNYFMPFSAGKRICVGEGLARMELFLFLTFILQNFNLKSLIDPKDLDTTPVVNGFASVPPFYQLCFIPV
Procedure: as §1

[15] = biological target: T6, CYP3A4 (Homo sapiens, UniProt P08684); experiment: biochemical; type: in vitro ADME
T6 construct: Add 400 μL 0.2 mg/mL HLM; from tissue; host or cells: human liver microsomes (HLM)
T6 sequence (P08684 whole entry): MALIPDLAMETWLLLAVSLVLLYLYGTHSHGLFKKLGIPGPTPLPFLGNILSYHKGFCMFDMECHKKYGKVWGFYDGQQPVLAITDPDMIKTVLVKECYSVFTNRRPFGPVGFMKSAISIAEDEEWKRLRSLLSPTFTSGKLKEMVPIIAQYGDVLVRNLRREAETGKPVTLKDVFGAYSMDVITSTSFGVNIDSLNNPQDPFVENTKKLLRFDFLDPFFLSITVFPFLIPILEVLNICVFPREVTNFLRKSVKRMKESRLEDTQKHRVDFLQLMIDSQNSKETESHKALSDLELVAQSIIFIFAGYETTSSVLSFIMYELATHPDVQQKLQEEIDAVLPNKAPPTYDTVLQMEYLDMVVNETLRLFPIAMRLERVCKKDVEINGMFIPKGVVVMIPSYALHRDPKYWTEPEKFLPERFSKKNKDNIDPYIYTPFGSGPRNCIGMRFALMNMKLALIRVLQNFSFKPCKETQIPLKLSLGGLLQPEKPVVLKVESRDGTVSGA
Procedure: as §1

[16] = biological target: T7, CYP1A2 (Homo sapiens, UniProt P05177); experiment: biochemical; type: in vitro ADME; settings: CYP1A2 (Phenacetin), HLM
T7 construct: Add 400 μL 0.2 mg/mL HLM; from tissue; host or cells: human liver microsomes (HLM)
T7 sequence (P05177 whole entry): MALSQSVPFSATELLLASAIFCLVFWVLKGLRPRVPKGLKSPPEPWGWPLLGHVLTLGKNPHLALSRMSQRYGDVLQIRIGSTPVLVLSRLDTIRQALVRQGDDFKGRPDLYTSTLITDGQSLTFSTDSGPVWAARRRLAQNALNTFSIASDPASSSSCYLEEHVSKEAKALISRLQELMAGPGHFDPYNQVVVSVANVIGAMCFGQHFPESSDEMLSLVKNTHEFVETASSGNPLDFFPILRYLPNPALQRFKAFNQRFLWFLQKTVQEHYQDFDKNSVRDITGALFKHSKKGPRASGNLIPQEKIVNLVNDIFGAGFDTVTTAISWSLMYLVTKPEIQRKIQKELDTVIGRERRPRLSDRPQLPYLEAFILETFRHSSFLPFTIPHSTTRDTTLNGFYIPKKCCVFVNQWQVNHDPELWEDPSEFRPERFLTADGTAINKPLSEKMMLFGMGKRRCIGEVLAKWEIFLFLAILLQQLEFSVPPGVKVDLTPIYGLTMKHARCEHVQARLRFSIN
Procedure: as §1

[17] = in vivo; settings: male, beagle, dog
[18] = in vitro; type: in vitro ADME; settings: human, microsomes, HLM 0.5 mg/mL, 1 μM
[19] = female, SD, rat, in vivo, 1000 mg/kg

hERG channel, sequence (Q12809 whole entry): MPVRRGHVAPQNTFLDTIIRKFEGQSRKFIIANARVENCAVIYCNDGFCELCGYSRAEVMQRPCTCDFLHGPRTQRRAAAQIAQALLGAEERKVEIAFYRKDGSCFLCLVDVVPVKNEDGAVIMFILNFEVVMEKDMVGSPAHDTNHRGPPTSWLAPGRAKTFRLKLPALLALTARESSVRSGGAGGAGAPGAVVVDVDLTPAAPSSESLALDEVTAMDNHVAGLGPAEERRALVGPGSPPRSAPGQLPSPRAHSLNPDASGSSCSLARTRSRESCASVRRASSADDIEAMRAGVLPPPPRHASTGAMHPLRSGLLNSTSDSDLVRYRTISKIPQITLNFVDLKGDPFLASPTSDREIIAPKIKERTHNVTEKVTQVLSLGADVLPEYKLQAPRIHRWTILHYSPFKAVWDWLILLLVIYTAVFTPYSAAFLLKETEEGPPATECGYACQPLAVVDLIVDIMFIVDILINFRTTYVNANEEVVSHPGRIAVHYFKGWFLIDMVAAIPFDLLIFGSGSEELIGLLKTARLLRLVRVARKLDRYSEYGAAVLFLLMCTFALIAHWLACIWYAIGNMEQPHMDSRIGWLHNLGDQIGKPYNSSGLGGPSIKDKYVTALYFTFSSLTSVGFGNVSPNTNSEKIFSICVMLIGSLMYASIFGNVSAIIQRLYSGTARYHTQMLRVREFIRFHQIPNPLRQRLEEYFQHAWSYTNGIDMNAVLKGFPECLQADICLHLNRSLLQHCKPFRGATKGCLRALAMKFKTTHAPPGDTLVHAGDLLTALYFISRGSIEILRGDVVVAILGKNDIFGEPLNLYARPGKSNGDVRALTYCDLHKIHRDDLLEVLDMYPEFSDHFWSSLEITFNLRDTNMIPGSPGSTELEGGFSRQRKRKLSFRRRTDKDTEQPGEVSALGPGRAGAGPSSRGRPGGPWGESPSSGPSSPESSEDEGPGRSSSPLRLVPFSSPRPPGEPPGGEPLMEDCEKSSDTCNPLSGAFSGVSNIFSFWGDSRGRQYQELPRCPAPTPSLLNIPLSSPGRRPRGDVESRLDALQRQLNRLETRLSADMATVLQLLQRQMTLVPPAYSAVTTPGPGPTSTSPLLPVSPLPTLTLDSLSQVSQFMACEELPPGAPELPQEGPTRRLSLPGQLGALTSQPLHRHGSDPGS

## COC[C@@H](NC(=O)C1CCCC(F)(F)C1)C(=O)N[C@H](Cc1ccccc1)C(=O)C(=O)NCc1nccs1 (stereo partly drawn) [SY110, N-((R)-1-(((R)-3,4-dioxo-1-phenyl-4-((thiazol-2-ylmethyl)amino)butan-2-yl)amino)-3-methoxy-1-oxopropan-2-yl)-3,3-difluorocyclohexane-1-carboxamide]
[1]
  EC50: 1.21 µM
[2]
  IC50: > 30 µM
[3]
  fraction unbound: 0.301
[4]
  Fraction of Bound (%): 69.9%
[5]; [19]
  Abnormal initial position of common carotid artery: 0.0 ± 0.0
  Abnormal initial position of subclavian artery: 0.0 ± 0.0
  Abnormal position of umbilical artery: 0.0 ± 0.0
  Absent of aortic arch: 0.0 ± 0.0
  Absent of innominate artery: 0.0 ± 0.0
  Rib: 14 Ribs – [V]: 6.9 ± 10.1
  Rib: Shortened #13 – [V]: 2.9 ± 6.4
  Skull: Interparietal bone, incomplete ossification – [V]: 0.0 ± 0.0
  Skull: Parietal bone, incomplete ossification – [V]: 0.0 ± 0.0
  Visceral malformation rate (%): 0.0 ± 0.0%
[5]; rat, 100 mg/kg
  Corpora lutea: 16.2 ± 2.1
  Implantation sites: 15.0 ± 3.5
  Live embryos: 14.5 ± 3.6
  Resorptions: 0.5 ± 0.8
  appearance malformation rate (%): 0.0 ± 0.0%
[5]; rat, 300 mg/kg
  Corpora lutea: 17.7 ± 1.5
  Implantation sites: 16.9 ± 1.5
  Live embryos: 16.3 ± 1.6
  Resorptions: 0.6 ± 0.5
  appearance malformation rate (%): 0.0 ± 0.0%
[5]; rat, 1000 mg/kg
  Corpora lutea: 17.4 ± 2.5
  Implantation sites: 17.0 ± 2.5
  Live embryos: 16.4 ± 2.1
  Resorptions: 0.6 ± 0.9
  appearance malformation rate (%): 0.0 ± 0.0%
[5]; rats, 1000 mg/kg/day (the highest dose tested)
  embryo-fetal development study outcome: no observed SY110-related maternal toxicity, reproductive toxicity, and effect on embryo-fetal viability
[6]; mouse, in vivo
  lung pathology, H&E staining: only scattered inflammatory cell infiltrates can be occasionally found in the alveolar interstitium
  viral N protein expression in the lung tissue: substantially reduced the viral N protein expression
[6]; plaque assays, therapeutic treatment
  production of the infectious virus particles in the lung: effectively suppressed
[7]; i.v. (1 mg/kg)
  MTRlast: 2.34 ± 0.22 h
  Vzobs: 3.03 ± 0.71 L/kg
[7]; p.o. (10 mg/kg)
  MTRlast: 6.60 ± 0.89 h
[8]; African green monkey, VeroE6, MTT
  CC50: > 500 µM
[8]; human, BEAS-2B, MTT
  CC50: > 500 µM
[8]; human, HUVEC, MTT
  CC50: > 500 µM
[9]; iv, 1 mg/kg
  AUC(0-inf): 2.32 ± 0.592 µg·h/mL
  AUC(0-t): 2.3 ± 0.587 µg·h/mL
  Cmax: 1.74 ± 0.285 µg/mL
  Tmax: 0.08 h
  clearance: 0.448 ± 0.1 L/h/kg
  half-life: 4.67 ± 0.19 h
[9]; po, 10 mg/kg
  AUC(0-inf): 20.2 ± 2.6 µg·h/mL
  AUC(0-t): 19 µg·h/mL
  Cmax: 1.43 ± 0.0985 µg/mL
  Tmax: 4 ± 2 h
  bioavailability: 82.8%
  half-life: 5.16 ± 2.94 h
14 days repeated dose toxicity study, text says rats
  no observed adverse effect level: 600 mg/kg
mice, p.o., 600 mg/kg, twice daily, 14 days
  Results, repeated dose two-week toxicity study: without death, significant body weight change, or pathological changes in the heart, liver, lung, kidney, or spleen
[10]
  IC50: > 30 µM
[11]
  IC50: > 30 µM
[12]
  IC50: > 30 µM
[13]
  IC50: > 30 µM
[14]
  IC50: > 30 µM
[15]; CYP3A4 (Midazolam), HLM
  IC50: > 30 µM
[15]; CYP3A4 (Testosterone), HLM
  IC50: > 30 µM
[15]; CYP3A4, text, substrate not stated there
  IC50: > 30 µM
[16]
  IC50: > 30 µM
[17]; iv, 1 mg/kg
  AUC(0-inf): 0.628 ± 0.113 µg·h/mL
  AUC(0-t): 0.624 ± 0.113 µg·h/mL
  Cmax: 1.27 ± 0.333 µg/mL
  Tmax: 0.083 h
  clearance: 1.63 L/h/kg
  half-life: 0.61 ± 0.05 h
[17]; po, 10 mg/kg
  AUC(0-inf): 8.29 ± 0.378 µg·h/mL
  AUC(0-t): 8.24 ± 0.37 µg·h/mL
  Cmax: 3.06 ± 0.136 µg/mL
  Tmax: 1 h
  bioavailability: 132%
  half-life: 5.59 ± 1.24 h
[18]; 0 min, Mean, read-out: Percent Remaining (%) 0 min
  remaining at 0 h: 100%
[18]; 5 min, Mean, read-out: Percent Remaining (%) 5 min
  remaining at 5 min: 80.7%
[18]; 15 min, Mean, read-out: Percent Remaining (%) 15 min
  remaining at […]: 65.4%
[18]; 30 min, Mean, read-out: Percent Remaining (%) 30 min
  remaining at 0.5 h: 48%
[18]; 45 min, Mean, read-out: Percent Remaining (%) 45 min
  remaining at 0.75 h: 37.2%
[18]; 60 min, Mean, read-out: Percent Remaining (%) 60 min
  remaining at 1 h: 29.8%
[18]; scaling factor 1254.2
  CLint scaled: 2.95 L/h/kg
